Test results as given in ChEMBL document CHEMBL1201862, “PubChem BioAssay data set” (2004).
Activity calls are given as the source filed them.

Experiments:
cells = type: functional, cell-based; details: HEK-CNG
Cytochrome P450 2D6 = Cytochrome P450 2D6 (Homo sapiens, UniProt P10635);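 further: CYP2D6 member of a cytochrome P450 panel assay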
HEK293 [1] = experiment: cells; details: Homo sapiens
Galanin receptor type 3 = Galanin receptor type 3 (Homo sapiens, UniProt O60755); experiment: Fluorescence-based cell-based primary high throughput dose response assay to identify antagonists of the Galanin Receptor 3 (GalR3).; type: functional
Cytochrome P450 2C9 = Cytochrome P450 2C9 (Homo sapiens, UniProt P11712)
Cytochrome P450 3A4 = Cytochrome P450 3A4 (Homo sapiens, UniProt P08684);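 further: CYP3A4 tested as one member of a cytochrome P450 panel screen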
HEK293 [2] = experiment: cells; details: Homo sapiens; remark: listed apart in the source
[3] = molecular target: T1, Methionyl-tRNA synthetase, putative (Trypanosoma brucei brucei, UniProt Q38C91); type: functional, Trypanosoma brucei brucei strain 927/4 GUTat10.1
T1 sequence (Q38C91 whole entry): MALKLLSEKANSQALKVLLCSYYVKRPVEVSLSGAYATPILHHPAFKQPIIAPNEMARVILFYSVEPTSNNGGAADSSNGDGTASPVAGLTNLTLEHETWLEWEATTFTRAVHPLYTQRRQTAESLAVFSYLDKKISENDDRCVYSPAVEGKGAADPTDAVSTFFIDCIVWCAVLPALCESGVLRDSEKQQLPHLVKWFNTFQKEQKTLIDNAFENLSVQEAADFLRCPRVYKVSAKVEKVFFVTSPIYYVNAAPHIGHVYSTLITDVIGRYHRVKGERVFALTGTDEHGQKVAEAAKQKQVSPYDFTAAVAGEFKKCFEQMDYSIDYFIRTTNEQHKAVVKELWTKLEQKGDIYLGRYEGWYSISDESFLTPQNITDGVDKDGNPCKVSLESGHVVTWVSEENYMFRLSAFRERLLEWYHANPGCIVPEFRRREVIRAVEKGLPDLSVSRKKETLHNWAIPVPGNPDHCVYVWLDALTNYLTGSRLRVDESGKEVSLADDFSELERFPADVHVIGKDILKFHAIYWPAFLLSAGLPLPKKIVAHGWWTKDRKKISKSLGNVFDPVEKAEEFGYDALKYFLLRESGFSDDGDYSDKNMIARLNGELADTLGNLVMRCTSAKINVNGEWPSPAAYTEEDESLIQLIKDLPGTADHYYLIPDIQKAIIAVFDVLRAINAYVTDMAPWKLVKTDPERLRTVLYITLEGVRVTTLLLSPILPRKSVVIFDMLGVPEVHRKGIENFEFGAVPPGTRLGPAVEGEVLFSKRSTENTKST

[4] = molecular target: T1, Methionyl-tRNA synthetase, putative; type: functional, Trypanosoma brucei brucei strain 927/4 GUTat10.1; remark: listed apart in the source
[5] = Counterscreen for inhibitors of Trypanosoma brucei methionyl tRNA synthetase (MetRS): Luminescence-based cell-based high throughput dose response assay to identify compounds that are cytotoxic to Jurkat human T lymphocyte cells.; type: functional
[6] = molecular target: Fructose-bisphosphate aldolase (Mycobacterium tuberculosis, UniProt P9WQA3); experiment: Fluorescence-based biochemical high throughput dose response assay for inhibitors of the fructose-bisphosphate aldolase (FBA) of M. tuberculosis.; type: functional
[7] = molecular target: T2, Replicative DNA helicase DnaB (Mycobacterium tuberculosis, UniProt P9WMR3); experiment: DnaB intein splicing inhibitors, dose response, biochemical, cell-free fluorescence (AID 449749); type: functional
T2 sequence (P9WMR3 whole entry): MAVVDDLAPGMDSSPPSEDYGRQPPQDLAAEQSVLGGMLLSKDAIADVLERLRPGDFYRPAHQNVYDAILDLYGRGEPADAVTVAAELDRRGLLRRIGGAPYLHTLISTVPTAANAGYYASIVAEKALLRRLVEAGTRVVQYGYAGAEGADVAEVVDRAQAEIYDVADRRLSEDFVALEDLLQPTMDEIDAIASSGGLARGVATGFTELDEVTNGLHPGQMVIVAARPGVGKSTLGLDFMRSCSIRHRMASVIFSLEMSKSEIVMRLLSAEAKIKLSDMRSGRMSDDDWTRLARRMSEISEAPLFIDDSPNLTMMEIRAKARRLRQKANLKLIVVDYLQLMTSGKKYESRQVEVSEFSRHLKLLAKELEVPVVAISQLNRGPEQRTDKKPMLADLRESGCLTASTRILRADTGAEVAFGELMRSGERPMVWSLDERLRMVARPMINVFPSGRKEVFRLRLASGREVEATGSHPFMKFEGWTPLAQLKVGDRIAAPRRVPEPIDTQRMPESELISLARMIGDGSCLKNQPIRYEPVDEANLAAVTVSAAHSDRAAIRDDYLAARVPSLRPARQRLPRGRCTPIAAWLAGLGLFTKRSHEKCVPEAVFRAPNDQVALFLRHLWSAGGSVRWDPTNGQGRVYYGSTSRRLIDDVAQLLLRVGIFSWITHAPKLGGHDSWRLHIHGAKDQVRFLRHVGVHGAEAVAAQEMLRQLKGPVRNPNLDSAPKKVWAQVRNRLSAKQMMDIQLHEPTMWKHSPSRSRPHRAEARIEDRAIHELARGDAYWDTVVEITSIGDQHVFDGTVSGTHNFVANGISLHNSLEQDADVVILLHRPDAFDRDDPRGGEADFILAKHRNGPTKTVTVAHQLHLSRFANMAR

Protein RecA = molecular target: T3, Protein RecA (Mycobacterium tuberculosis, UniProt P9WHJ3); experiment: Fluorescence Cell-Free Homogeneous Dose Retest to Identify Inhibitors of RecA-Intein Splicing Activity. [Related pubchem assays (depositor defined):AID2097, AID2223, AID489010, AID492950]; type: functional
T3 sequence (P9WHJ3 whole entry): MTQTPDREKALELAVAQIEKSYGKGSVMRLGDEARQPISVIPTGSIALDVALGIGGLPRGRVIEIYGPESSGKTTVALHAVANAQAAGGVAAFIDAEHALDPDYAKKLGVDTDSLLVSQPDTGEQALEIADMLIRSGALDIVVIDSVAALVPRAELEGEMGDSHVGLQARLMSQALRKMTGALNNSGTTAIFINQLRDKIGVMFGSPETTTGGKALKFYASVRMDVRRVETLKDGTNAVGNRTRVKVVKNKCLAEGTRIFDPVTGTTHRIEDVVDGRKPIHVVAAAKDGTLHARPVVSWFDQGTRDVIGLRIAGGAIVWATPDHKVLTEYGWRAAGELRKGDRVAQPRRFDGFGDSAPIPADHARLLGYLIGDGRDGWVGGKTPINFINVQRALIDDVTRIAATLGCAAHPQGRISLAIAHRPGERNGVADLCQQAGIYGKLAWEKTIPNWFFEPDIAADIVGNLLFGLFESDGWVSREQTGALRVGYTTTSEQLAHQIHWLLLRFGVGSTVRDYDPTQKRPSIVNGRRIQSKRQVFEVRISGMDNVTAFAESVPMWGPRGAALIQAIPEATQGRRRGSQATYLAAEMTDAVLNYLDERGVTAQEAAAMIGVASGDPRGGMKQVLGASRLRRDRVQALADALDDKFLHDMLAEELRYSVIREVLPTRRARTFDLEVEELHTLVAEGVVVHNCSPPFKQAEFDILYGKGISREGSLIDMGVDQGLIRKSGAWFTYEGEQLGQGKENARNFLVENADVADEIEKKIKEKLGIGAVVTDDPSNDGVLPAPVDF

[8] = Counterscreen for activators of the function of SWI/SNF related, matrix associated, actin dependent regulator of chromatin, subfamily a, member 2 (SMARCA2, BRM): Luminescence-based cell-based high throughput dose response assay to identify non-selective compounds using the VP16 reporter assay.; type: functional
[9] = molecular target: SWI/SNF-related matrix-associated actin-dependent regulator of chromatin subfamily A member 2 (Homo sapiens, UniProt P51531); experiment: Luminescence-based cell-based high throughput dose response assay to identify activators of the function of SWI/SNF related, matrix associated, actin dependent regulator of chromatin, subfamily a, member 2 (SMARCA2, BRM).; type: functional
[10] = cytotoxicity toward DRD oncogenic fibroblasts, dose response, cell-based, non-viral oncogenic, luminescence (AID 1934); type: functional; details: Homo sapiens
H4 = experiment: Luminescence Cell-Based Dose Response HTS to Identify Activators of 5'UTR Stem-Loop Driven Prion Protein mRNA Translation in H4 Neuroglioblastoma Cells. [Related pubchem assays: 1829 (Project Summary), 1814 (Primary HTS)]; type: functional; details: Homo sapiens
Beta-lactamase [11] = molecular target: Beta-lactamase (Pseudomonas aeruginosa, UniProt Q79MP6);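 further: biochemical dose-response test of metallo-beta-lactamase enzyme inhibition, read out by epi-absorbance; purified recombinant IMP-1 metallo-beta-lactamase with nitrocefin as substrate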
Streptokinase A = molecular target: T4, Streptokinase A (Streptococcus pyogenes serotype M1, UniProt P10520); experiment: S. pyogenes streptokinase expression inhibitors, potency, dose response, plasminogen activation absorbance, OD405 (AID 1914); type: functional, Streptococcus pyogenes M1 GAS;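 further: secreted streptokinase activity via plasminogen activation per viability signal from cell pellet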
T4 sequence (P10520 whole entry): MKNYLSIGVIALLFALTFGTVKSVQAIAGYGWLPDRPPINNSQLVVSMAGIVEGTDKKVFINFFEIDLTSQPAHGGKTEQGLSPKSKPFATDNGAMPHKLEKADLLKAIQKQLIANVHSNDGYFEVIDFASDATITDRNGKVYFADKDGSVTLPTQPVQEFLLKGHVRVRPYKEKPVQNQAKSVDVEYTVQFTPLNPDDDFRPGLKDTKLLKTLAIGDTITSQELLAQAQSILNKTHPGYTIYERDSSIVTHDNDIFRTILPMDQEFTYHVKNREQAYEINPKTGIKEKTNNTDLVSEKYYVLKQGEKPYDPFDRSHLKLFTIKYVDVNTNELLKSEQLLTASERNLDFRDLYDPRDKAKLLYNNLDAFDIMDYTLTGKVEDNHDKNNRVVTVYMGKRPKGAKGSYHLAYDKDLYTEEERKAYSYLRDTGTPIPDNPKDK

BJ [12] = experiment: cytotoxicity toward BJ-TERT fibroblasts, dose response, cell-based, RAS-independent, luminescence (AID 1933); type: functional; details: Homo sapiens
[13] = Luminescence Cell-Based Dose Response to Identify Activators of Luciferase Translation or Activity in H4-C Neuroglioblastoma Cells. [Related pubchem assays: 1829 (Project Summary), 1814 (Primary HTS)]; type: functional
[14] = Luminescence Cell-Based Dose Confirmation to Identify Activators of 5'UTR Stem-Loop Driven Alpha-Synuclein mRNA Translation in H4 Neuroglioblastoma Cells. [Related pubchem assays: 1829 (Project Summary), 1814 (Primary HTS)]; type: functional
BJ [15] = experiment: cells; type: functional, cell-based; details: Homo sapiens
Streptococcus = experiment: Group A Streptococcus viability loss, dose response, counter-screen for streptokinase expression inhibitor project, luminescence, BacTiterGlo (AID 1915); type: functional, organism-based;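 further: potency for reduction of bacterial viability or growth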
Beta-lactamase [16] = molecular target: Beta-lactamase (Salmonella choleraesuis (strain SC-B67), UniProt Q5J463)
[17] = system: Streptococcus sp. 'group A'; experiment: growth inhibition of control SK(-) GAS strain, dose response, counter-screen for streptokinase expression inhibitor project, luminescence, kanamycin, BacTiterGlo, confirmation (AID 1900); type: functional, organism-based
BJ [18] = experiment: cytotoxicity toward BJ-TERT-LT-ST fibroblasts, dose response, cell-based, RAS-independent, luminescence (AID 1935); type: functional; details: Homo sapiens;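 further: BJ fibroblasts immortalized with TERT plus LT and ST oncogenes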
[19] = Luminescence Cell-Based Dose Response to Identify Activators of 5'UTR Stem-Loop Driven Prion Protein mRNA Translation in H4-C Neuroglioblastoma Cells. [Related pubchem assays: 1829 (Project Summary), 1814 (Primary HTS)]; type: functional
BJ [20] = experiment: cytotoxicity toward Ras-transformed BJeLR fibroblasts, dose response, cell-based, alamar blue fluorescence, cherrypicked samples (AID 2631); type: functional; details: Homo sapiens;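 further: confirmatory dose-response assay in RAS-dependent BJ fibroblasts engineered with TERT, LT and ST, with cytotoxicity read by fluorescence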

Chain of Fructose-bisphosphate aldolase (P9WQA3 whole entry): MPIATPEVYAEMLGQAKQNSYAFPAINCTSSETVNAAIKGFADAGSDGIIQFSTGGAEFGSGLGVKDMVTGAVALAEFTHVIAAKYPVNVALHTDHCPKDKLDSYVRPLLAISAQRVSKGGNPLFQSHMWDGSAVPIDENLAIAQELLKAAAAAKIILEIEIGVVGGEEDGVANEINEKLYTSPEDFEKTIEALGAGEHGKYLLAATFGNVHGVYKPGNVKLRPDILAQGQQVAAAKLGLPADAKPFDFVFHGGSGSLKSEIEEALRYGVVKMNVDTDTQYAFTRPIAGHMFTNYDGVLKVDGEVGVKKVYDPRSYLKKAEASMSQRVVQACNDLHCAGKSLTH
Chain of Galanin receptor type 3 (O60755 whole entry): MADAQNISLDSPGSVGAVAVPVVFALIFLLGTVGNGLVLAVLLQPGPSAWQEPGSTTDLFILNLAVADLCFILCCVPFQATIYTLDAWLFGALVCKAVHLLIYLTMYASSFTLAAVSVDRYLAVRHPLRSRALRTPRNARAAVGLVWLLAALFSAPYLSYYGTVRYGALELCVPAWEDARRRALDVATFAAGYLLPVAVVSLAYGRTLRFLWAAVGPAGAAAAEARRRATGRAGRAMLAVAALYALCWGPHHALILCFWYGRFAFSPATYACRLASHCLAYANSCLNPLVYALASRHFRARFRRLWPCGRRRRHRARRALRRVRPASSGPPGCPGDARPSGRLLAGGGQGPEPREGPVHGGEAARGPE
Chain of Beta-lactamase (Salmonella choleraesuis (strain SC-B67), UniProt Q5J463) (Q5J463 whole entry): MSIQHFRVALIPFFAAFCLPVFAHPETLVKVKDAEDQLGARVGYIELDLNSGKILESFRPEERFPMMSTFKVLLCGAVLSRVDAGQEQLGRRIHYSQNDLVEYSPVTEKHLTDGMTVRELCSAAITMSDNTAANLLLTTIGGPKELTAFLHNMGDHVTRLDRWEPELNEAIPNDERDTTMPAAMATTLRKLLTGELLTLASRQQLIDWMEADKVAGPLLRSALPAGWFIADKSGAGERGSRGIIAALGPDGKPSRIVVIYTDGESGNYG
Chain of SWI/SNF-related matrix-associated actin-dependent regulator of chromatin subfamily A member 2 (P51531 whole entry): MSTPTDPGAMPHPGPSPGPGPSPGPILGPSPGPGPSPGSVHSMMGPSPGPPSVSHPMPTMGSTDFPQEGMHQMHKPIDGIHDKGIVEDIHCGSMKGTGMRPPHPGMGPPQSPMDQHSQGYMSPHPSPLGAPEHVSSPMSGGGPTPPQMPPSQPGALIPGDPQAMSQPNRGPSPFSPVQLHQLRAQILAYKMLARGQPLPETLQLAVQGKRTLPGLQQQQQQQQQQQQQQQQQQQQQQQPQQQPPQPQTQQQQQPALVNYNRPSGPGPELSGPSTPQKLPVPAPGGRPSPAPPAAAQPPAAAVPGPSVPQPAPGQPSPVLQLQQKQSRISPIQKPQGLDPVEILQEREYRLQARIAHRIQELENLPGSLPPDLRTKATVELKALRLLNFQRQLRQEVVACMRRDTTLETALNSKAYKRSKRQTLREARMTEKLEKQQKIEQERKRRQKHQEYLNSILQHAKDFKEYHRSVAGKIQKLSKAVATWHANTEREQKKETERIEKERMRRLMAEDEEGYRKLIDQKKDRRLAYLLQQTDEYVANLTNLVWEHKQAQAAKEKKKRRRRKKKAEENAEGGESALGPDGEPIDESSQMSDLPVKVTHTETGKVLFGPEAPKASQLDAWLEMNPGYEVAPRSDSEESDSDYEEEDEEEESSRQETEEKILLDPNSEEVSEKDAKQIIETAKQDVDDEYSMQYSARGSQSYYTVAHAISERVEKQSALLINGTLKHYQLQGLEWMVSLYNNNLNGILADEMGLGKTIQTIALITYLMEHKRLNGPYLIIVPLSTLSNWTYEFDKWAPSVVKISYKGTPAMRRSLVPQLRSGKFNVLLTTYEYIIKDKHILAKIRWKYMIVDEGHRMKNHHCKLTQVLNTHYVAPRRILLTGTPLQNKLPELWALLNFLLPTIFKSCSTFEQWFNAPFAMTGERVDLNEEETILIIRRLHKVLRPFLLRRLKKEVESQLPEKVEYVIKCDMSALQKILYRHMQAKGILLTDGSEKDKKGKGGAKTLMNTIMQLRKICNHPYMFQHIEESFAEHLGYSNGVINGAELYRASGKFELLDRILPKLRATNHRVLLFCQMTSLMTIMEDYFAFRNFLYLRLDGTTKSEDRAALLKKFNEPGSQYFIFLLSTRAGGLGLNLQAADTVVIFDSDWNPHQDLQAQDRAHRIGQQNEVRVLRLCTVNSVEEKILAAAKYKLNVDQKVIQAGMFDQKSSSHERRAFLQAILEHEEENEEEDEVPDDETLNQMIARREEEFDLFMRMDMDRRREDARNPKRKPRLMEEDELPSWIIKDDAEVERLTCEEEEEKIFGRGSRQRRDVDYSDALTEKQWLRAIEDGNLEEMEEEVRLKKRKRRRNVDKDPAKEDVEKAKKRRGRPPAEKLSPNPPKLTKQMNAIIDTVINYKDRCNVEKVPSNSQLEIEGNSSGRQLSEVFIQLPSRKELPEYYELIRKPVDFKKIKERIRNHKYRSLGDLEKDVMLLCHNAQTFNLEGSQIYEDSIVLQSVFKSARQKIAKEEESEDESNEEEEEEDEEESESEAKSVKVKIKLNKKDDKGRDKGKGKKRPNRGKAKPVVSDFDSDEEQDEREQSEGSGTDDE
Chain of Cytochrome P450 3A4 (P08684 whole entry): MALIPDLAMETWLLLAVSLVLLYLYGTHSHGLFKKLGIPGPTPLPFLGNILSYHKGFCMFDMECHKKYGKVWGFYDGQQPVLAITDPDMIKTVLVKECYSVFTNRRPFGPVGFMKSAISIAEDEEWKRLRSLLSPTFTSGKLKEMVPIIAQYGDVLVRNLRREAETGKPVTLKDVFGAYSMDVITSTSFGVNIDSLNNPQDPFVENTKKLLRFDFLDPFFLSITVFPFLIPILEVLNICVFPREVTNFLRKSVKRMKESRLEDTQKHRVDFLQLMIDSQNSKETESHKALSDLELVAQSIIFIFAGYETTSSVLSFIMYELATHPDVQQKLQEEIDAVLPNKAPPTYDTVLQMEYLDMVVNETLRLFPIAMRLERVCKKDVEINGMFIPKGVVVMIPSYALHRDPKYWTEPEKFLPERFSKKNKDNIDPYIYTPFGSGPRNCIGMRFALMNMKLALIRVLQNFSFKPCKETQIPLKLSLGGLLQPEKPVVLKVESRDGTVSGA
Chain of Beta-lactamase (Pseudomonas aeruginosa, UniProt Q79MP6) (Q79MP6 whole entry): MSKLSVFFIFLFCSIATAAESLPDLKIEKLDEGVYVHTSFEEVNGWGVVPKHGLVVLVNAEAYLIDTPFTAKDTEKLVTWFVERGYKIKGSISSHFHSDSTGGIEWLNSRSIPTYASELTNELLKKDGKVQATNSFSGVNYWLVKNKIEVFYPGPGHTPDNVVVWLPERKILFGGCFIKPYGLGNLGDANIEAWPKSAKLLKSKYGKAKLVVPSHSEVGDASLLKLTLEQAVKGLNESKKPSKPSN
Chain of Cytochrome P450 2D6 (P10635 whole entry): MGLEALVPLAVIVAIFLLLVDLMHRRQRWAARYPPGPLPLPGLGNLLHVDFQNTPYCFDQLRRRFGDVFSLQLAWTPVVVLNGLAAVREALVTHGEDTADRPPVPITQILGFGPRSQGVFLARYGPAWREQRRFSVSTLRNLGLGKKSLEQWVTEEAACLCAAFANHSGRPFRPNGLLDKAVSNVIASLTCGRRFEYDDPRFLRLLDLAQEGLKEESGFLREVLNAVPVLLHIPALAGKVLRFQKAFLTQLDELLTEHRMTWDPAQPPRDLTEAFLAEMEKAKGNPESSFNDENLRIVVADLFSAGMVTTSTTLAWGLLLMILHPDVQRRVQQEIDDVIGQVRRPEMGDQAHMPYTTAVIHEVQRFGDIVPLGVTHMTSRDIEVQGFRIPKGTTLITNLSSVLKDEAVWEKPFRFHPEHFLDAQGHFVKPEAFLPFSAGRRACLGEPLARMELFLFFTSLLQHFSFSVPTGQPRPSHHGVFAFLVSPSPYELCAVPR
Chain of Cytochrome P450 2C9 (P11712 whole entry): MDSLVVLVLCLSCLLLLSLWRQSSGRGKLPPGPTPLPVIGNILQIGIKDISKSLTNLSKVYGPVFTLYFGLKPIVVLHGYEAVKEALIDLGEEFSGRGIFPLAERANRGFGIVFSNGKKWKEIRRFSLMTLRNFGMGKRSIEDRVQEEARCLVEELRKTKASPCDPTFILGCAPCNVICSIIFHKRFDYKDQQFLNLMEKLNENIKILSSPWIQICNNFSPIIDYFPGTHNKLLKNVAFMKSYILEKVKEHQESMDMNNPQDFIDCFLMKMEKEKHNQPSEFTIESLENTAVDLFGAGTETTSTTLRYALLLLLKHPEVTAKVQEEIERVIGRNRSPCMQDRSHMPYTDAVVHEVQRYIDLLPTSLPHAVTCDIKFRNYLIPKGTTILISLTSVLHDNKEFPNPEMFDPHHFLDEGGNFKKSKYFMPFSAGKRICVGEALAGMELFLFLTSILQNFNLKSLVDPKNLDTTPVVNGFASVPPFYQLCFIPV

N#CCSc1nc(N)c(C#N)c(C2CCCCC2)c1C#N
EC50 (cells): > 29.9 µM (inactive)
AC50 (Cytochrome P450 2D6): 39.8 µM (inconclusive)
EC50 (HEK293 [1]): > 59.6 µM (inactive)
IC50 (Galanin receptor type 3): 2.17 µM (active)
AC50 (Cytochrome P450 2C9): 12.6 µM (inconclusive)
AC50 (Cytochrome P450 3A4): 3.16 µM (inconclusive)
EC50 (HEK293 [2]): > 59.6 µM (inactive)

CS(=O)(=O)c1ccc(Cl)c(NC(=O)c2ccc(-n3cncn3)c([N+](=O)[O-])c2)c1
IC50 [3]: 7.04 µM (active)
IC50 [4]: 2.13 µM (active)
IC50 [5]: 83.3 µM (inactive)

CCc1cc(=O)oc2cc(C)cc(OC(C)C(=O)NC3CCN(Cc4ccccc4)CC3)c12 (stereo not given)
IC50 [6]: 1.52 µM (active)

O=C(NCCc1ccc(Cl)cc1)Nc1ccc(Cl)cc1
IC50 [3]: 119 µM (inactive)
IC50 [4]: 2.58 µM (active)
IC50 [5]: 83.3 µM (inactive)

Cc1nn(-c2ccccc2)c(O)c1/C=N/c1cnc2ccccc2c1
IC50 [6]: > 3.33 µM (active)

Brc1ccc(Cn2c(-c3ccc(Br)o3)nc3ccccc32)o1
AC50 [7]: 147 µM (active)
EC50 (Protein RecA): 9.48 µM (active)
EC50 [8]: > 91.2 µM (inactive)
EC50 [9]: > 91.2 µM (inactive)

CN(Cc1ccc2c(c1)CCCN2C)C(=O)[C@H]1O[C@@H](n2cnc3c(N)ncnc32)[C@H](O)[C@@H]1O
EC50 (cells): > 29.9 µM (inactive)
IC50 (Galanin receptor type 3): 3.97 µM (active)

CCC(/C=C1\Sc2ccc3ccccc3c2N1C)=C\c1sc2ccc3ccccc3c2[n+]1C
EC50 [10]: 0.395 µM (active)
EC50 (H4): > 120 µM (not active)
IC50 (Beta-lactamase [11]): > 59.6 µM (inactive)
EC50 (Streptokinase A): > 150 µM (not active)
EC50 (BJ [12]): 0.164 µM (active)
EC50 [13]: > 12 µM (not active)
EC50 [14]: 3.46 µM (inconclusive)
EC50 (BJ [15]): 0.352 µM (inconclusive)
EC50 (Streptococcus): 15.5 µM (active)
IC50 (Beta-lactamase [16]): > 59.6 µM (inactive)
EC50 [17]: 3.13 µM (active)
EC50 (BJ [18]): 0.343 µM (inconclusive)
EC50 [19]: > 12 µM (not active)
EC50 (BJ [20]): < 0.104 µM (active)
